The results in this text go back to paper PMC8011931, “Identification, Structure–Activity Relationship, and Biological Characterization of 2,3,4,5-Tetrahydro-1H-pyrido[4,3-b]indoles as a Novel Class of CFTR Potentiators” (Journal of Medicinal Chemistry, 2020).

The target in one data set is F508del-CFTR (Homo sapiens, UniProt P13569, DEL508-508). The data set is described as follows: HS-YFP-based assay for CFTR activity on F508del-CFTR FRT cells rescued at 32 °C for 24 h. It counts as cell-based. The arrangement: expressed in transfected cells; key to Emax: fold increase in F508del-CFTR rescue relative to hit 3 (normalized). As to conditions: for EC50: F508del-CFTR FRT cells rescued at 32 °C for 24 h, plus forskolin; for Emax: supplementary csv, same data as Tables 1–3. A digest of the protocol:
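FRT cells co-expressing F508del-CFTR and HS-YFP (H148Q/I152L) were rescued 24 h at 32 °C, then exposed to compound plus forskolin (10 or 20 μM) for about 25 min in PBS. Iodide injection (100 mM final) quenched YFP (ex 500/em 535 nm). The initial dF/dt gave activity, fitted for EC50 and for Emax relative to a reference hit.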

Data set [1] can be described thus: Liver microsomal stability, phase I (NADPH), human. Format: in vitro ADME. Conditions: for human LM_NADPH parent compound remaining at the last time point (in parentheses): 4.6 μM, 60 min; for half-life at 4.6 μM / half-life at 1 h, 4.6 µM: human, liver microsomes, pH 7.5, 0.1% DMSO, n ≥ 3, read-out: human LM_NADPH t1/2. How it is done:
Phase I: 10 mM DMSO stock solution of the test compound was preincubated at 37 °C for 15 min with rat, dog, or human liver microsomes in 0.1 M Tris–HCl buffer (pH 7.5) with 10% DMSO. The final concentration was 4.6 μM. After preincubation, the cofactors (NADPH, G6P, G6PDH, and MgCl2 predissolved in 0.1 M Tris–HCl) were added to the incubation mixture and the incubation was continued at 37 °C for 1 h.
(§1) For both phase I and II studies: At each time point (0, 5, 15, 30, and 60 min), 30 μL of the incubation mixture was diluted with 200 μL of cold CH3CN spiked with 200 nM of an appropriate internal standard, followed by centrifugation at 3270g for 15 min. The supernatant was further diluted with H2O (1:1) for analysis. A reference incubation mixture (microsomes without cofactors) was prepared for each test compound and analyzed at t = 0 and 60 min in order to verify the compound’s stability in the matrix. The two time points were diluted as for the time points of the incubation mixture above. The supernatants were analyzed by LC/MS–MS on a Waters ACQUITY UPLC/MS TQD system consisting of a TQD (triple quadrupole detector) mass spectrometer equipped with an electrospray ionization interface and a photodiode array eλ detector. Electrospray ionization was applied in positive mode. Compound-dependent parameters as MRM transitions and collision energy were developed for each compound. The analyses were run on an ACQUITY UPLC BEH C18 (50 × 2.1 mm ID, particle size 1.7 μm) with a VanGuard BEH C18 precolumn (5 × 2.1 mm ID, particle size 1.7 μm) at 40 °C, using H2O + 0.1% HCOOH (A) and CH3CN + 0.1% HCOOH (B) as the mobile phase. The percentage of test compound remaining at each time point relative to t = 0 was calculated by the response factor on the basis of the internal standard peak area. The percentage of test compound versus time was plotted and fitted by GraphPad Prism (GraphPad Software, Version 5 for Windows, CA, USA, www.graphpad.com) to estimate the compound’s half-life (t1/2), which was reported as mean value along with the standard deviation (n = 3).
(Liver microsomes are a subcellular fraction often used to study metabolism.)

Data set [2] is described as follows: Liver microsomal stability, phase I (NADPH), dog. It counts as in vitro ADME. As to conditions: for dog LM_NADPH parent compound remaining at the last time point (in parentheses): 4.6 μM, 60 min; for half-life at 4.6 μM: dog, liver microsomes, pH 7.5, 0.1% DMSO, n ≥ 3, read-out: dog LM_NADPH t1/2. The method, then:
[…] The final concentration was 4.6 μM. After preincubation, the cofactors (NADPH, G6P, G6PDH, and MgCl2 predissolved in 0.1 M Tris–HCl) were added to the incubation mixture and the incubation was continued at 37 °C for 1 h.
as §1

[3] abbreviates: mean ± SD (n = 3–6), n.a.: not active (up to 20 μM).

F508del-CFTR, sequence (P13569 with tags, fused parts or gaps DEL508-508): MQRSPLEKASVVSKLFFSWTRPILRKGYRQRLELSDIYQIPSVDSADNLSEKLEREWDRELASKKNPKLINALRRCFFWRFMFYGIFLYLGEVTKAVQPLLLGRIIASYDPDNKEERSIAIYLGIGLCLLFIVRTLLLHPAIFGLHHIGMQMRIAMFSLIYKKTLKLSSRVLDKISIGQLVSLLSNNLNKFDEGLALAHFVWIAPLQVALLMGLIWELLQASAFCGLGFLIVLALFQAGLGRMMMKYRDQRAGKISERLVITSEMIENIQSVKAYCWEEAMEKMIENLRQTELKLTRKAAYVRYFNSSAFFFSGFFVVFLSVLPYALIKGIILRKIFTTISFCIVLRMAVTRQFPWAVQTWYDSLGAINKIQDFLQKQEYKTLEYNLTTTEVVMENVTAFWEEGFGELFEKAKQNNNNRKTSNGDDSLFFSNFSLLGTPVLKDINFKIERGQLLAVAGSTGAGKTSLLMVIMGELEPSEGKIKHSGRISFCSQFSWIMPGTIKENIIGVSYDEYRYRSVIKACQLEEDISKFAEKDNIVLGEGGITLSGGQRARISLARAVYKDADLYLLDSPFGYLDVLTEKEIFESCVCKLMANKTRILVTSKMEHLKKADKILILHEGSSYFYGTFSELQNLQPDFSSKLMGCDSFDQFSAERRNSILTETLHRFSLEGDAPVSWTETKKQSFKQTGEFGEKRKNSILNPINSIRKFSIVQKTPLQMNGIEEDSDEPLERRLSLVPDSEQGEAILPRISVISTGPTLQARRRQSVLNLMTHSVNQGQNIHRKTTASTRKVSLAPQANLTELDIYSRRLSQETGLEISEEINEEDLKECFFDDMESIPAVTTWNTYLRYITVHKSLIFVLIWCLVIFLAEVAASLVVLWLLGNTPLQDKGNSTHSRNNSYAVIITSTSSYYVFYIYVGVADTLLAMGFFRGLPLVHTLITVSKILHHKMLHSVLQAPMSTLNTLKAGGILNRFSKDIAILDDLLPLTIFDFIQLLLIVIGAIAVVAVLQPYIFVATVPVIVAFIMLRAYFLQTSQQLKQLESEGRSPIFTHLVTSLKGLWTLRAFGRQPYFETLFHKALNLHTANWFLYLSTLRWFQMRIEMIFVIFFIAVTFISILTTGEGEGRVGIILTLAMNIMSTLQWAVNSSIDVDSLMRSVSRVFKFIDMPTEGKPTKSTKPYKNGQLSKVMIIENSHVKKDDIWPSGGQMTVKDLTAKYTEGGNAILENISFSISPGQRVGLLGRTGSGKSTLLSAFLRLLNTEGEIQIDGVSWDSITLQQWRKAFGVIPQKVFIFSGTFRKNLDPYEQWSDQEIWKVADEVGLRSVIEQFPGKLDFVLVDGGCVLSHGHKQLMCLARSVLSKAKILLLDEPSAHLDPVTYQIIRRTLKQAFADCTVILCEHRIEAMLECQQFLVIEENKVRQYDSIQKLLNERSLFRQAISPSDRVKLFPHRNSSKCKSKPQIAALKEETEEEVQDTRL

For the compound `O=C(c1cc(C(F)(F)F)[nH]n1)N1CCc2[nH]c3c(F)cccc3c2C1` [Compound 20, (6-Fluoro-1,3,4,5-tetrahydro-2H-pyrido[4,3-b]indol-2-yl)-(5-(trifluoromethyl)-1H-pyrazol-3-yl)methanone], the EC50 (in general, the concentration giving half of the maximal effect) on F508del-CFTR (setting [3]) stood at 0.096 ± 0.021 µM. Besides, the “Emax (FRT F508del-CFTR)” value on F508del-CFTR (normalized for the activity of analogue 3, mean ± SD (n = 3–6), n.a.: not active (up to 20 μM)) was 0.96 ± 0.06. In addition, at F508del-CFTR, the Emax worked out at 0.96 ± 0.06. Further, in data set [1], the “human LM_NADPH parent compound remaining at the last time point (in parentheses)” value (“human LM_NADPH parent compound remaining” below) is given as 78% and the half-life at 4.6 μM was greater than 1 h. In data set [2], the “dog LM_NADPH parent compound remaining at the last time point (in parentheses)” value (“dog LM_NADPH parent compound remaining” below) is recorded as 85% and the half-life at 4.6 μM is greater than 1 h.

In the case of `Cc1ccc(F)c2[nH]c3c(c12)CN(C(=O)c1cc(C(F)(F)F)[nH]n1)CC3` [Compound 30, (6-Fluoro-9-methyl-1,3,4,5-tetrahydro-2H-pyrido[4,3-b]indol-2-yl)-(5-(trifluoromethyl)-1H-pyrazol-3-yl)methanone], the “fold increase in potency compared to hit 3” value at F508del-CFTR (EC50, F508del-CFTR FRT cells) is given as “more than 6 fold”. On F508del-CFTR (setting [3]), the EC50 turned out to be 0.06 ± 0.03 µM. Also, the Emax on F508del-CFTR was 1.00 ± 0.09. For the same compound, the half-life at 1 h, 4.6 µM in data set [1] amounted to 0.883 ± 0.0333 h. For the same compound, in data set [2], the “dog LM_NADPH parent compound remaining” value is on record as 92% and the half-life at 4.6 μM is greater than 1 h.

In the case of `Cc1ccc(F)c2[nH]c3c(c12)CN(C(=O)c1cc(C(F)(F)F)[nH]n1)[C@H](C)C3` [Compound 39, (R)-(6-Fluoro-3,9-dimethyl-1,3,4,5-tetrahydro-2H-pyrido[4,3-b]indol-2-yl)-(5-(trifluoromethyl)-1H-pyrazol-3-yl)methanone], at F508del-CFTR, the “activity on F508del-CFTR FRT cells (in words)” value is “the most potent analogue” and the Emax was 1.30 ± 0.12. In addition, the EC50 on F508del-CFTR (setting [3]) was found to be 0.017 ± 0.007 µM. Further, at F508del-CFTR (tested at 10 and 1 nM, Figure 6A), the “activity compared to VX-770” value is on record as “slightly lower activity than VX-770”. In addition, in data set [1], the “human LM_NADPH parent compound remaining” value was determined as 71% and the half-life at 4.6 μM was greater than 1 h. Moreover, in data set [2], the “dog LM_NADPH parent compound remaining” value is reported as 92% and the half-life at 4.6 μM was greater than 1 h.

For the compound `COc1ccc2[nH]c3c(c2c1)CN(C(=O)c1cc(C(F)(F)F)[nH]n1)CC3` [Compound 3, (8-Methoxy-1,3,4,5-tetrahydropyrido[4,3-b]indol-2-yl)-[5-(trifluoromethyl)-1H-pyrazol-3-yl]methanone], on F508del-CFTR (setting [3]), the EC50 amounted to 0.35 ± 0.13 µM. Besides, the Emax on F508del-CFTR worked out at 1 ± 0.04. Moreover, the half-life at 1 h, 4.6 µM in data set [1] amounted to 0.7 ± 0.183 h. Besides, in data set [2], the “dog LM_NADPH parent compound remaining” value turned out to be 68% and the half-life at 4.6 μM is greater than 1 h.

Take `COc1cc(F)c2[nH]c3c(c2c1)CN(C(=O)c1cc(C(F)(F)F)[nH]n1)CC3` [Compound 25, (6-Fluoro-8-methoxy-1,3,4,5-tetrahydro-2H-pyrido[4,3-b]indol-2-yl)-(5-(trifluoromethyl)-1H-pyrazol-3-yl)methanone]: the EC50 on F508del-CFTR (setting [3]) worked out at 0.13 ± 0.06 µM. In addition, the Emax on F508del-CFTR worked out at 1.15 ± 0.13. Moreover, the half-life at 1 h, 4.6 µM in data set [1] was found to be 0.55 ± 0.0167 h. In data set [2], the “dog LM_NADPH parent compound remaining” value is reported as 90% and the half-life at 4.6 μM is greater than 1 h.

For the compound `O=C(c1cc(C(F)(F)F)[nH]n1)N1CCc2[nH]c3c(F)ccc(F)c3c2C1` [Compound 29, (6,9-Difluoro-1,3,4,5-tetrahydro-2H-pyrido[4,3-b]indol-2-yl)-(5-(trifluoromethyl)-1H-pyrazol-3-yl)methanone], the EC50 at F508del-CFTR (setting [3]) came to 0.15 ± 0.08 µM. Also, the Emax at F508del-CFTR amounted to 1.19 ± 0.15. Besides, in data set [1], the “human LM_NADPH parent compound remaining” value is on record as >60 (60) % and the half-life at 4.6 μM is greater than 1 h. In data set [2], the “dog LM_NADPH parent compound remaining” value was determined as 93% and the half-life at 4.6 μM is greater than 1 h.
